Results from patent US4791215A, “Derivatives of glutamic acid and aspartic acid” (priority 1984, dated 1988).

System: morphine analgesia
Experiment: Increase in analgesia of morphine, Tail Flick Test (Experiment 1)
Assay type: in vivo, rats
Settings: for percentage variation of latency of pain sensation / M (10-90) ± SE, mean percentage variation of latency: compound 10 mg/kg i.p. + morphine 2 mg/kg; for M (10-90) ± SE, mean percentage variation of latency: mean 10-90 min; for Power ratio with respect to morphine alone: rat, in vivo
Protocol: Experiment No: 1 Increase in analgesia of analgesic-narcotic drugs in rats by the Tail Flick Test
The method is that described by Harris et al. (J. Pharmacol. Exp. Ther. 143 (1964) 141-148).
Male rats are used having a weight of about 150-200 g which have not fasted. A point on the tail is chosen and irradiated by a heat source (75° C.) and the time (in seconds) for which the animal remains without moving its tail is measured.
A maximum period of time of 8 seconds under the heat source is chosen, after which the animal is, in any case, removed to avoid tissue damage. The measurement is effected before (controls) and after treatment with the drugs.
The percentage variation is calculated for each individual animal by the following formula: [formula] The measurements were carried out 10, 20, 30, 45, 60 and 90 minutes after treatment with the analgesics.

Row | Structure (SMILES) | percentage variation of latency of pain sensation (10') | percentage variation of latency of pain sensation (20') | percentage variation of latency of pain sensation (30') | percentage variation of latency of pain sensation (45') | percentage variation of latency of pain sensation (60') | percentage variation of latency of pain sensation (90') | M (10-90) ± SE, mean percentage variation of latency | Power ratio with respect to morphine alone
1 | CCCN(CCC)C(=O)C(CCC(=O)O)NC(=O)c1ccc(CC(C)C)cc1 (centres unmarked) [Compound C-38] | 53.8% | 85.7 ± 10% | 92.0 ± 8% | 99.1 ± 1% | 91.2 ± 9% | 51.1 ± 14% | 78.8% | 2.64
2 | CCN(CC)C(=O)C(CCC(=O)O)NC(=O)c1ccc(C)c(C)c1 (centres unmarked) [Compound C-40] | 43.8 ± 15% | 69.1% | 49.0 ± 23% | 85.6 ± 6% | 76.5 ± 17% | 61.5 ± 14% | 64.2 ± 16% | 2.15
3 | CCCCNC(=O)C(CCC(=O)O)NC(=O)c1ccc(CC)cc1 (centres unmarked) [Compound C-43] | 54.1 ± 17% | 44.4 ± 23% | 38.9 ± 26% | 36.8 ± 27% | 47.8 ± 23% | 22.5 ± 13% | 40.7 ± 11% | 1.36
4 | CCCCNC(=O)C(CCC(=O)O)NC(=O)c1ccc(CCC)cc1 (centres unmarked) [Compound C-44] | -1.6 ± 11% | 17.0 ± 6% | 24.9% | 26.9 ± 19% | 35.1 ± 17% | 39.8 ± 8% | 23.7 ± 15% | 0.79
5 | CCCNC(=O)C(CCC(=O)O)NC(=O)c1ccc(C)c(C)c1 (centres unmarked) [Compound C-45] | 57.2 ± 18% | 99.7 ± 0.3% | 95.7 ± 4% | 93.1 ± 7% | 77.7 ± 11% | 80.4% | 84.0 ± 16% | 2.82
6 | CC(C)c1ccc(C(=O)NC(CCC(=O)O)C(=O)NC2CCCCC2)cc1 (centres unmarked) [Compound C-49] | 62.1 ± 9% | 100.0 ± 0% | 97.6 ± 2% | 99.5 ± 0.5% | 99.2 ± 0.5% | 65.8 ± 0.8% | 87.4% | 2.93
7 | Cc1ccc(C(=O)NC(CCC(=O)O)C(=O)N(C)C)cc1C (centres unmarked) [Compound C-50] | 22.3 ± 13% | 68.9 ± 9% | 60.2 ± 19% | 49.4 ± 14% | 73.5 ± 15% | 24.7 ± 6% | 49.8 ± 22% | 1.67
8 | Cc1ccc(C(=O)NC(CCC(=O)O)C(=O)N2CCOCC2)cc1C (centres unmarked) [Compound C-51] | 78.7 ± 18% | 82.8% | 90.5 ± 10% | 86.4 ± 14% | 65.6 ± 13% | 48.5 ± 10% | 75.4 ± 16% | 2.53
9 | Cc1ccc(C(=O)NC(CCC(=O)O)C(=O)N2CCCCC2)cc1C (centres unmarked) [Compound C-52] | 72.8 ± 15% | 95.8 ± 3% | 96.3 ± 4% | 85.5 ± 10% | 87.6% | 45.3 ± 6% | 80.6 ± 19% | 2.70
10 | CCCCN(CCCC)C(=O)C(CCC(=O)O)NC(=O)c1cccc(C)c1 (centres unmarked) [Compound C-53] | 31.2 ± 15% | 46.7 ± 28% | 70.2 ± 23% | 76.9 ± 22% | 45.6 ± 27% | 12.6 ± 25% | 47.2 ± 24% | 1.58
11 | CCCCNC(=O)CCC(NC(=O)c1ccc(CC)cc1)C(=O)O [Compound D-13] | 7.1 ± 8% | 32% | 62.5 ± 23% | 31.8 ± 21% | 48.5 ± 22% | 50.9 ± 14% | 38.8 ± 20% | 1.30
12 | CCCCNC(=O)CCC(NC(=O)c1ccc(CCC)cc1)C(=O)O [Compound D-14] | 69.2 ± 14% | 93.4 ± 7% | 46.8 ± 15% | 71.3 ± 17% | 89.1 ± 9% | 60.3% | 71.1 ± 14% | 2.41
13 | CCCNC(=O)CCC(NC(=O)c1ccc(C)c(C)c1)C(=O)O [Compound D-16] | 29.7 ± 21% | 42.8 ± 18% | 40.1 ± 22% | 35.4 ± 18% | 33.3 ± 20% | 23.3% | 34.1 ± 17% | 1.14
